Measurements taken from patent US20260078122A1, “INDAZOLE COMPOUNDS AS PKMYT1 KINASE INHIBITORS” (Hoffmann-La Roche Inc., priority 2023, published 2026).

Settings: microsomes, pH 7.4

## Cc1cc2[nH]c(=O)c(N)c(-c3ccc(F)c4[nH]ncc34)c2nc1N1CC2(COC2)C1 [Example 026, 3-Amino-4-(7-fluoro-1H-indazol-4-yl)-7-methyl-6-(2-oxa-6-azaspiro[3.3]heptan-6-yl)-1H-1,5-naphthyridin-2-one]
  Clearance of Human microsome: 8.87 mL/min/kg
